From the supplement of paper PMC11061612

Key:
[1] = test system: ALL-SIL (T-Lymphoblastic Leukemia); test: Bliss excess, mean over the matrix (fraction); higher = more synergy
Method in brief: (§1)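 Bliss excess equals the observed combination effect minus the expected value EA + EB − EA·EB, where EA and EB are the effects of each agent alone. Combination Emax is the second-highest inhibition within the matrix. Inhibition was scaled from CellTiter-Glo 2.0 luminescence, with 0 set by vehicle wells and 1 by blank wells, after 72 hours of two-drug dosing of cells plated in 1536-well plates.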

[2] = test system: CADO-ES1 (Ewing's Sarcoma); test: as above
Method in brief: as §1

[3] = test system: HCC2998 (Colorectal Carcinoma); test: as above
Method in brief: as §1

[4] = test system: Hey (Ovarian Carcinoma); test: as above
Method in brief: as §1

[5] = test system: NCI-H1092 (Small Cell Lung Carcinoma); test: as above
Method in brief: as §1

[6] = test system: NCI-H2122 (Lung Adenocarcinoma); test: as above
Method in brief: as §1

[7] = test system: CADO-ES1 (Ewing's Sarcoma); test: combination Emax (second highest fraction inhibited in the dose matrix, 72 h); higher = more inhibition; extreme values may be limits of the assay
Method in brief: as §1

[8] = test system: DU-145 (Prostate Carcinoma); test: as above
Method in brief: as §1

[9] = test system: EJM (Plasma Cell Myeloma); test: as above
Method in brief: as §1

[10] = test system: EW-1 (Ewing's Sarcoma); test: as above
Method in brief: as §1

[11] = test system: HCC1500 (Breast Carcinoma); test: as above
Method in brief: as §1

[12] = test system: HCC1937 (Breast Carcinoma); test: as above
Method in brief: as §1

[13] = test system: HCC2998 (Colorectal Carcinoma); test: as above
Method in brief: as §1

[14] = test system: Hey (Ovarian Carcinoma); test: as above
Method in brief: as §1

[15] = test system: KOPN-8 (B-Lymphoblastic Leukemia); test: as above
Method in brief: as §1

[16] = test system: LC-1-sq (Squamous Cell Lung Carcinoma); test: as above
Method in brief: as §1

[17] = test system: NCI-H1092 (Small Cell Lung Carcinoma); test: as above
Method in brief: as §1

[18] = test system: NCI-H650 (Lung Adenocarcinoma); test: as above
Method in brief: as §1

[19] = test system: OACM5-1 (Esophageal Adenocarcinoma); test: as above
Method in brief: as §1

| SMILES | Bliss excess [1] | Bliss excess [2] | Bliss excess [3] | Bliss excess [4] | Bliss excess [5] | Bliss excess [6] | combination Emax [7] | combination Emax [8] | combination Emax [9] | combination Emax [10] | combination Emax [11] | combination Emax [12] | combination Emax [13] | combination Emax [14] | combination Emax [15] | combination Emax [16] | combination Emax [17] | combination Emax [18] | combination Emax [19] |
| --- | --- | --- | --- | --- | --- | --- | --- | --- | --- | --- | --- | --- | --- | --- | --- | --- | --- | --- | --- |
| CN(CCO)CC[C@H](CSc1ccccc1)Nc1ccc(S(=O)(=O)NC(=O)c2ccc(N3CCC([C@@H](O)c4ccccc4-c4ccc(Cl)cc4)CC3)cc2)cc1S(=O)(=O)C(F)(F)F [AZD4320] + C[C@@H](Nc1cc(F)cc(F)c1)c1cc(C(=O)N(C)C)cc2c(=O)cc(N3CCOCC3)oc12 [AZD8186] (first compound max 1 µM, 7x7, partner max 3 µM) | 0.0208 | -0.0003 | -0.0212 | -0.0027 | 0.0389 | 0 | 0.919 | 0.227 | 0.511 | 0.924 | 0.992 | 0.63 | 0.884 | 0.373 | 1 | 0.336 | 0.938 | 0.474 | 0.404 |
| CN(CCO)CC[C@H](CSc1ccccc1)Nc1ccc(S(=O)(=O)NC(=O)c2ccc(N3CCC([C@@H](O)c4ccccc4-c4ccc(Cl)cc4)CC3)cc2)cc1S(=O)(=O)C(F)(F)F [AZD4320] + Cn1cnc2c(F)c(Nc3ccc(Br)cc3Cl)c(C(=O)NOCCO)cc21 [Selumetinib] (first compound max 1 µM, 7x7, partner max 3 µM) | -0.0006 | -0.0085 | 0.0449 | 0.0771 | -0.0193 | 0.0399 | 0.886 | 0.255 | 0.488 | 0.921 | 0.998 | 0.601 | 0.992 | 0.533 | 1 | 0.485 | 0.956 | 0.656 | 0.427 |
| Cc1cc2ncnn2cc1Nc1ncc2c(n1)n(C1CCOCC1)c(=O)n2C [AZD7648] + C=CCn1c(=O)c2cnc(Nc3ccc(N4CCN(C)CC4)cc3)nc2n1-c1cccc(C(C)(C)O)n1 [AZD1775] (first compound max 10 µM, partner max 1 µM) | 0.0133 | 0.0512 | 0.0368 | -0.0086 | -0.0873 | -0.0122 | 0.45 | 0.289 | 0.893 | 0.832 | 0.424 | 0.52 | 0.628 | 0.613 | 0.903 | 0.91 | 0.382 | 0.288 | 0.473 |
| Cc1cc2ncnn2cc1Nc1ncc2c(n1)n(C1CCOCC1)c(=O)n2C [AZD7648] + CCN(CCO)CCCOc1ccc2c(Nc3cc(CC(=O)Nc4cccc(F)c4)[nH]n3)ncnc2c1 [AZD2811] (first compound max 10 µM, 7x7, partner max 1 µM) | -0.0416 | 0.0236 | -0.0065 | 0.113 | 0.0041 | 0.0547 | 0.377 | 0.209 | 0.242 | 0.312 | 0.445 | 0.234 | 0.191 | 0.41 | 0.58 | 0.325 | 0.182 | 0.14 | 0.293 |
| Cc1cc2ncnn2cc1Nc1ncc2c(n1)n(C1CCOCC1)c(=O)n2C [AZD7648] + CN(C)CCCOc1ccc(-c2ccc3ncc4c(c3c2)n(C2CCOCC2)c(=O)n4C)cn1 [AZD0156] (first compound max 10 µM, 7x7, partner max 1 µM) | 0.0467 | 0.0465 | 0.0329 | 0.0367 | -0.0312 | 0.0426 | 0.38 | 0.167 | 0.225 | 0.34 | 0.299 | 0.221 | 0.299 | 0.32 | 0.311 | 0.221 | 0.0818 | 0.186 | 0.27 |
| Cc1cc2ncnn2cc1Nc1ncc2c(n1)n(C1CCOCC1)c(=O)n2C [AZD7648] + C[C@@H]1COCCN1C2=NC(=NC(=C2)C3(CC3)[S@](=N)(=O)C)C4=C5C=CNC5=NC=C4 [AZD6738] (first compound max 10 µM, 7x7, partner max 10 µM) | 0.0462 | 0.0364 | 0.0336 | 0.0229 | 0.0073 | 0.0176 | 0.824 | 0.478 | 0.893 | 0.871 | 0.383 | 0.527 | 0.87 | 0.689 | 0.891 | 0.827 | 0.302 | 0.138 | 0.443 |
| COc1cc2c(cc1OCCCCCOc1cc3c(cc1OC)C(=O)N1C=C(C)C[C@H]1C=N3)N=C[C@@H]1CC(C)=CN1C2=O [SG3199] + O=C(c1cc(Cc2n[nH]c(=O)c3ccccc23)ccc1F)N1CCN(C(=O)C2CC2)CC1 [Olaparib] (first compound max 0.001 µM, 7x7, partner max 10 µM) | -0.0316 | 0.0008 | -0.0099 | -0.0086 | -0.0165 | 0.0073 | 0.325 | 0.104 | 0 | 0.636 | 0.125 | 0.14 | 0.389 | 0.196 | 0.719 | 0.187 | 0.152 | 0.136 | 0.0893 |
